Data published in US12077503B2, “Substituted cyclic amides and their use as herbicides” (FMC CORPORATION, priority 2015, dated 2024).

Tests used:
Type in all cases: in vivo
Kochia (Kochia scoparia) [1] = experiment: Test A postemergence
Summary of the method: (§1)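 Ratings of 0 (no effect) to 100 (complete control) come from visual comparison with untreated controls roughly 10 d after treatment. Test chemicals, formulated in a non-phytotoxic solvent mixture with surfactant, were applied either as a preemergence directed soil spray on seeded soil or postemergence to one- to two-leaf plants 2 to 10 cm tall.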

[2] = system: pigweed (Amaranthus retroflexus); experiment: Test A postemergence
Summary of the method: as §1

[3] = system: Galium (catchweed bedstraw, Galium aparine); experiment: Test A postemergence
Summary of the method: as §1

[4] = system: ryegrass, Italian (Italian ryegrass, Lolium multiflorum); experiment: Test A postemergence
Summary of the method: as §1

[5] = system: blackgrass (Alopecurus myosuroides); experiment: Test A postemergence
Summary of the method: as §1

[6] = system: giant foxtail (Setaria faberii); experiment: Test A postemergence
Summary of the method: as §1

[7] = system: ragweed (common ragweed, Ambrosia elatior); experiment: Test A postemergence
Summary of the method: as §1

[8] = system: barnyardgrass (Echinochloa crus-galli); experiment: Test A postemergence
Summary of the method: as §1

corn (Zea mays) = experiment: Test A postemergence
Summary of the method: as §1

[9] = system: wheat (Triticum aestivum); experiment: Test A postemergence
Summary of the method: as §1

rice (Oryra sativa) = experiment: Test B flooded paddy test; settings: Flood, 250 g ai/ha
Summary of the method: (§2)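 Compound goes directly into floodwater once pots are flooded 3 cm above soil, targeting plants at two leaves; the water depth is then held for the test duration. Plants sit 13–15 d in a greenhouse and are rated visually, 100 denoting complete control.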

[10] = system: barnyardgrass (Echinochloa crus-galli); experiment: Test B flooded paddy test; settings: Flood, 250 g ai/ha
Summary of the method: as §2

[11] = system: ducksalad (Heteranthera limosa); experiment: Test B flooded paddy test; settings: Flood, 250 g ai/ha
Summary of the method: as §2

[12] = system: sedge, umbrella (small-flower umbrella sedge, Cyperus difformis); experiment: Test B flooded paddy test; settings: Flood, 250 g ai/ha, 0 to 100 scale where 0 is no effect and 100 is complete control
Summary of the method: as §2

Kochia (Kochia scoparia) [13] = experiment: Test A preemergence; settings: for Kochia plant response rating (0 to 100 scale, 0 is no effect, 100 is complete control): Preemergence
Summary of the method: as §1

[14] = system: pigweed (Amaranthus retroflexus); experiment: Test A preemergence; settings: for Pigweed plant response rating (0 to 100 scale, 0 is no effect, 100 is complete control): Preemergence
[15] = system: ryegrass, Italian (Italian ryegrass, Lolium multiflorum); experiment: Test A preemergence
Summary of the method: as §1

[16] = system: giant foxtail (Setaria faberii); experiment: Test A preemergence
Summary of the method: as §1

[17] = system: ragweed (common ragweed, Ambrosia elatior); experiment: Test A preemergence; settings: for Ragweed plant response rating (0 to 100 scale, 0 is no effect, 100 is complete control): Preemergence
Summary of the method: as §1

[18] = system: barnyardgrass (Echinochloa crus-galli); experiment: Test A preemergence; settings: for Barnyardgrass plant response rating (0 to 100 scale, 0 is no effect, 100 is complete control): Preemergence
Summary of the method: as §1

[19] = 125 g ai/ha, postemergence, visual injury rating on 0 to 100 scale (0 no effect, 100 complete control), approx. 10 d
[20] = 500 g ai/ha, postemergence, 0 to 100 scale, 0 no effect, 100 complete control
[21] = 0 to 100 scale where 0 is no effect and 100 is complete control, 13 to 15 d
[22] = 125 g ai/ha, preemergence, 0 to 100 scale (0 no effect, 100 complete control)
[23] = 500 g ai/ha, visual injury approx. 10 d
[24] = Preemergence, 500 g ai/ha, visual injury approx. 10 d
[25] = 125 g ai/ha, Postemergence, visual injury after approximately 10 d, 0 to 100 scale where 0 is no effect and 100 is complete control
[26] = 125 g ai/ha, visual injury rating after approximately 10 d

With `Cc1c(F)ccc(NC(=O)C2C(=O)NCC2c2cc(F)cc(F)c2)c1F` (centres unmarked) [Compound 461] the “Kochia plant response rating” value (Kochia (Kochia scoparia) [1]; [19]) was 0, the “Plant response rating, Kochia” value (Kochia (Kochia scoparia) [1]; [20]) was 0 and the “Pigweed plant response rating” value [2, 19] was 0. The “Plant response rating, Pigweed” value [2, 20] was 0, the “Galium plant response rating” value [3, 19] was 0 and the “Plant response rating, Galium” value [3, 20] was 20. For the same compound, the “Ryegrass, Italian plant response rating” value [4, 19] was 0, the “Plant response rating, Ryegrass, Italian” value [4, 20] was 20 and the “Blackgrass plant response rating” value [5, 19] was 0. The “Plant response rating, Blackgrass” value [5, 20] was 0, the “Foxtail, Giant plant response rating” value [6, 19] was 80 and the “Plant response rating, Foxtail, Giant” value [6, 20] was 80. For the same compound, the “Ragweed plant response rating” value [7, 19] was 0, the “Plant response rating, Ragweed” value [7, 20] was 0 and the “Barnyardgrass plant response rating” value [8, 19] was 80. For the same compound, the “Plant response rating, Barnyardgrass” value [8, 20] was 90, the “Corn plant response rating” value (corn (Zea mays); [19]) was 0 and the “Plant response rating, Corn” value (corn (Zea mays); [20]) was 0. The “Wheat plant response rating” value [9, 19] was 0, the “Plant response rating, Wheat” value [9, 20] was 0 and the “Plant response rating, Rice” value (rice (Oryra sativa); [21]) was 0. The “Plant response rating, Barnyardgrass” value [10, 21] was 60, the “Plant response rating, Ducksalad” value [11, 21] was 100 and the “Plant response rating, Sedge, Umbrella” value ([12]; 13 to 15 d) was 0. For the same compound, the “Plant response rating, Kochia” value (Kochia (Kochia scoparia) [13]; [22]) was 0, the “Kochia plant response rating (0 to 100 scale, 0 is no effect, 100 is complete control)” value (Kochia (Kochia scoparia) [13]; [23]) was 50 and the “Plant response rating, Pigweed” value [14, 22] was 0. The “Pigweed plant response rating (0 to 100 scale, 0 is no effect, 100 is complete control)” value [14, 23] was 0, the “Plant response rating, Ryegrass, Italian” value [15, 22] was 20 and the “Ryegrass, Italian plant response rating (0 to 100 scale, 0 is no effect, 100 is complete control)” value [15, 24] was 20. The “Plant response rating, Foxtail, Giant” value [16, 22] was 90, the “Foxtail, Giant plant response rating (0 to 100 scale, 0 is no effect, 100 is complete control)” value [16, 24] was 90 and the “Plant response rating, Ragweed” value [17, 22] was 0. The “Ragweed plant response rating (0 to 100 scale, 0 is no effect, 100 is complete control)” value [17, 23] was 0, the “Plant response rating, Barnyardgrass” value [18, 22] was 70 and the “Barnyardgrass plant response rating (0 to 100 scale, 0 is no effect, 100 is complete control)” value [18, 23] was 90.
In the case of `Cc1ccc([C@H]2CN(C)C(=O)[C@@H]2C(=O)Nc2ccccc2[S+](C)[O-])cc1F` (single isomer, unassigned) [Compound 987], the “Plant response rating, Kochia” value (Kochia (Kochia scoparia) [1]; [25]) is reported as 0, the pest or weed control at 125 g/ha ([2]; Amaranthus retroflexus, post-emergence, 240 h, 125 g ai/ha, Postemergence, visual injury after approximately 10 d, 0 to 100 scale where 0 is no effect and 100 is complete control, read-out: Plant response rating, Pigweed) is reported as 0% and the pest or weed control at 125 g/ha ([3]; Galium, post-emergence, 240 h, 125 g ai/ha, Postemergence, visual injury after approximately 10 d, 0 to 100 scale where 0 is no effect and 100 is complete control, read-out: Plant response rating, Galium) is reported as 40%. For the same compound, the “Plant response rating, Ryegrass, Italian” value [4, 25] was 0, the “Plant response rating, Blackgrass” value [5, 25] was 0 and the pest or weed control at 125 g/ha ([6]; Setaria faberi, post-emergence, 240 h, 125 g ai/ha, Postemergence, visual injury after approximately 10 d, 0 to 100 scale where 0 is no effect and 100 is complete control, read-out: Plant response rating, Foxtail, Giant) was 60%. The pest or weed control at 125 g/ha ([7]; Ambrosia artemisiifolia, post-emergence, 240 h, 125 g ai/ha, Postemergence, visual injury after approximately 10 d, 0 to 100 scale where 0 is no effect and 100 is complete control, read-out: Plant response rating, Ragweed) was 0%, the pest or weed control at 125 g/ha ([8]; Echinochloa crus-galli, post-emergence, 240 h, 125 g ai/ha, Postemergence, visual injury after approximately 10 d, 0 to 100 scale where 0 is no effect and 100 is complete control, read-out: Plant response rating, Barnyardgrass) was 80% and the “Plant response rating, Corn” value (corn (Zea mays); [25]) was 0. The “Plant response rating, Wheat” value [9, 25] was 0, the pest or weed control at 250 g/ha (rice (Oryra sativa); Oryza sativa, scale of 0 to 100 where 0 is no effect and 100 is complete control, read-out: Rice plant response rating) was 35% and the pest or weed control at 250 g/ha ([10]; Echinochloa crus-galli, scale of 0 to 100 where 0 is no effect and 100 is complete control, read-out: Barnyardgrass plant response rating) was 90%. The “Ducksalad plant response rating” value ([11]; scale of 0 to 100 where 0 is no effect and 100 is complete control) was 75, the pest or weed control at 250 g/ha ([12]; Cyperus difformis, read-out: Sedge, Umbrella plant response rating) was 0% and the “Kochia plant response rating (0 to 100 scale, 0 is no effect, 100 is complete control)” value (Kochia (Kochia scoparia) [13]; [26]) was 0. The pest or weed control at 500 g/ha (Kochia (Kochia scoparia) [13]; Bassia scoparia, pre-emergence, 240 h, 500 g ai/ha, preemergence, visual injury rating about 10 d after treatment, 0 to 100 scale (0 no effect, 100 complete control), read-out: Kochia plant response rating) was 60%, the “Pigweed plant response rating (0 to 100 scale, 0 is no effect, 100 is complete control)” value [14, 26] was 0 and the pest or weed control at 500 g/ha ([14]; Amaranthus retroflexus, pre-emergence, 240 h, 500 g ai/ha, preemergence, visual injury rating about 10 d after treatment, 0 to 100 scale (0 no effect, 100 complete control), read-out: Pigweed plant response rating) was 20%. The pest or weed control at 125 g/ha ([15]; Lolium multiflorum, pre-emergence, 240 h, 125 g ai/ha, Preemergence, visual injury rating after approximately 10 d, read-out: Ryegrass, Italian plant response rating (0 to 100 scale, 0 is no effect, 100 is complete control)) was 0%, the pest or weed control at 500 g/ha ([15]; Lolium multiflorum, pre-emergence, 240 h, 500 g ai/ha, preemergence, visual injury rating about 10 d after treatment, 0 to 100 scale (0 no effect, 100 complete control), read-out: Ryegrass, Italian plant response rating) was 40% and the pest or weed control at 125 g/ha ([16]; Setaria faberi, pre-emergence, 240 h, 125 g ai/ha, Preemergence, visual injury rating after approximately 10 d, read-out: Foxtail, Giant plant response rating (0 to 100 scale, 0 is no effect, 100 is complete control)) was 90%. The pest or weed control at 500 g/ha ([16]; Setaria faberi, pre-emergence, 240 h, 500 g ai/ha, preemergence, visual injury rating about 10 d after treatment, 0 to 100 scale (0 no effect, 100 complete control), read-out: Foxtail, Giant plant response rating) was 90%, the “Ragweed plant response rating (0 to 100 scale, 0 is no effect, 100 is complete control)” value [17, 26] was 0 and the “Ragweed plant response rating” value ([17]; 500 g ai/ha, preemergence, visual injury rating about 10 d after treatment, 0 to 100 scale (0 no effect, 100 complete control)) was 0. For the same compound, the “Barnyardgrass plant response rating (0 to 100 scale, 0 is no effect, 100 is complete control)” value [18, 26] was 60 and the pest or weed control at 500 g/ha ([18]; Echinochloa crus-galli, pre-emergence, 240 h, 500 g ai/ha, preemergence, visual injury rating about 10 d after treatment, 0 to 100 scale (0 no effect, 100 complete control), read-out: Barnyardgrass plant response rating) was 90%.
